Data: US20160324820A1, “PHARMACEUTICAL COMPOSITIONS COMPRISING 15-HEPE AND METHODS OF TREATING ASTHMA AND LUNG DISORDERS USING SAME” (Dignity Sciences Limited, priority 2014, published 2016)

Tested on: Hartley guinea pigs
Test: Histamine-induced bronchoconstriction following seven days of oral gavage in anesthetized, ventilated guinea pigs
Type: in vivo, guinea pig
Details: for Change from baseline Respiratory Resistance (ventilator pressure), Average RR / Change from baseline Respiratory Resistance (ventilator pressure), Average VP: n=3
From the text: In an embodiment, the pharmacodynamics of a composition comprising 15-HEPE as disclosed herein may be examined using a model of a lung disease or disorder. In a more detailed embodiment, the effects of a composition comprising a vehicle, a positive control or 15-HEPE on ventilator pressure in histamine challenged guinea pigs serves as a model for the pharmacodynamics in asthma. In an exemplary method, guinea pigs are first dosed with compositions comprising a vehicle, a positive control or 15-HEPE for seven days. The treated guinea pigs can then be anesthetized and exposed to a nebulized bronchoconstictor to determine if 15-HEPE can reduce the increase in ventilatory pressure induced by a bronchoconstrictor. This serves as an effective model for asthma and other lung diseases. The guinea pig is a reliable animal model in respiratory research due to their respiratory sensitivity and their expression of similar respiratory reactions to those observed in humans. […] Adult male Hartley guinea pigs weighing approximately 450-500 g were acclimated least 5 days before the day of the beginning of the oral gavages. Animals were assigned to one of four groups (low dose, high dose, vehicle and positive control) and were double-housed per group during acclimation period. The test article was formulated using olive oil as the vehicle. A low and a high dose of 15-HEPE (50 mg/kg and 500 mg/kg) was formulated. A 1 mg/ml stock solution of bambuterol was prepared in an aqueous solution, and was then mixed with olive oil in the gavage syringe for the […]. The stock solution was stored at −20° C., but was used at room temperature and was considered stable for the duration of the experiment. A 5 μg/ml stock solution of histamine dihydrochloride (Sigma Aldrich) was prepared in a saline solution (0.9% NaCl). The stock solution was stored at 4° C. The expiration date was set at 14 days after preparation. The concentrations of positive control, (bambuterol 0.27 mg/kg/day) and the hypertensor (histamine 0.184, 0.919 and 1.84 μg/kg) were selected based on literature references. Each group received the designated compound by oral gavage using a 1 ml syringe. The dosing schedule was as follows: • Vehicle (olive oil) • Bambuterol 0.27 mg/kg/day • 15-HEPE 50 mg/kg/day • 15-HEPE 500 mg/kg/day The stock solutions were administered once per day for seven consecutive days. On the seventh dosage day the animals underwent surgery two hours after the oral feeding. All animal care and vivarium maintenance were recorded, with documents kept at the test facility. Guinea pigs were anesthetized with an intraperitoneal injection of urethane (1.5 g/kg). A tracheotomy was performed and the animals were mechanically ventilated throughout the experiment. The ventilatory pressure was recorded and analyzed for signs of bronchospasm. A pulse oxymeter was attached to each animal's hind paw to obtain heart beat and oxygen saturation on the anaesthetized guinea pigs to continuously monitor the general condition of the animals during the surgical procedure. Following baseline measurements, three doses of histamine (0.184, 0.919 and 1.84 μg/kg) were nebulized (constant volume tidal, 60 respirations per minute, 7.5 ml/sec), with an interval of 20 minutes between each dose, or until a steady state was reached. Respiratory resistance, heart rate, and oxygen saturation were monitored continuously for a period of about 1 hour post challenge. At the end of the experiment, the animals were euthanized by exsanguination. Clampfit 10.2.0.14 analysis software (Axon Instruments), installed on networked personal computers running Microsoft Windows was used. Clampfit 10.2.0.14 has been fully validated in the connected context in which it was used. The graphics software for illustrations is Microsoft Office Excel 2007 installed on networked personal computers running Microsoft Windows. […]

[1] = 15-HEPE 500 mg/kg/day gavage 7 days, nebulized histamine 0.184 (μg/kg)
[2] = 15-HEPE 500 mg/kg/day gavage 7 days, nebulized histamine 0.919 (μg/kg)
[3] = 15-HEPE 500 mg/kg/day gavage 7 days, nebulized histamine 1.84 (μg/kg)
[4] = bambuterol 0.27 mg/kg/day gavage 7 days, nebulized histamine 0.184 (μg/kg)
[5] = bambuterol 0.27 mg/kg/day gavage 7 days, nebulized histamine 0.919 (μg/kg)
[6] = bambuterol 0.27 mg/kg/day gavage 7 days, nebulized histamine 1.84 (μg/kg)

## CCC=CCC(O)C=CC=CCC=CCC=CCCCC(=O)O (stereo not shown) [15-HEPE, 15-Hydroxy-eicosa-5,8,11,13,17-pentaenoic acid]
[1]
  Change from baseline Respiratory Resistance (ventilator pressure), Guinea pig #1: 0.2098 mmHg
  Change from baseline Respiratory Resistance (ventilator pressure), Guinea pig #2: 1.657 mmHg
  Change from baseline Respiratory Resistance (ventilator pressure), Guinea pig #3: 0.6489 mmHg
  Change from baseline Respiratory Resistance (ventilator pressure), Average RR: 0.84 mmHg
[2]
  Change from baseline Respiratory Resistance (ventilator pressure), Guinea pig #1: 0.8494 mmHg
  Change from baseline Respiratory Resistance (ventilator pressure), Guinea pig #2: 1.37 mmHg
  Change from baseline Respiratory Resistance (ventilator pressure), Guinea pig #3: 2.34 mmHg
  Change from baseline Respiratory Resistance (ventilator pressure), Average RR: 1.52 mmHg
[3]
  Change from baseline Respiratory Resistance (ventilator pressure), Guinea pig #1: 2.169 mmHg
  Change from baseline Respiratory Resistance (ventilator pressure), Guinea pig #2: 1.791 mmHg
  Change from baseline Respiratory Resistance (ventilator pressure), Guinea pig #3: 3.913 mmHg
  Change from baseline Respiratory Resistance (ventilator pressure), Average RR: 2.62 mmHg
Test animals challenged with a bronchoconstrictor, result in words
  lung ventilatory pressure: improve lung ventilatory pressure

## CN(C)C(=O)Oc1cc(OC(=O)N(C)C)cc(C(O)CNC(C)(C)C)c1 (stereo not shown) [Bambuterol, bambuterol, reference compound]
[4]
  Change from baseline Respiratory Resistance (ventilator pressure), Guinea pig #1: 0.2759 mmHg
  Change from baseline Respiratory Resistance (ventilator pressure), Guinea pig #2: −0.05857 mmHg
  Change from baseline Respiratory Resistance (ventilator pressure), Guinea pig #3: 1.238 mmHg
  Change from baseline Respiratory Resistance (ventilator pressure), Average VP: 0.48 mmHg
[5]
  Change from baseline Respiratory Resistance (ventilator pressure), Guinea pig #1: 1.099 mmHg
  Change from baseline Respiratory Resistance (ventilator pressure), Guinea pig #2: 1.219 mmHg
  Change from baseline Respiratory Resistance (ventilator pressure), Guinea pig #3: 2.266 mmHg
  Change from baseline Respiratory Resistance (ventilator pressure), Average VP: 1.53 mmHg
[6]
  Change from baseline Respiratory Resistance (ventilator pressure), Guinea pig #1: 2.215 mmHg
  Change from baseline Respiratory Resistance (ventilator pressure), Guinea pig #2: 1.945 mmHg
  Change from baseline Respiratory Resistance (ventilator pressure), Guinea pig #3: 2.651 mmHg
  Change from baseline Respiratory Resistance (ventilator pressure), Average VP: 2.27 mmHg
